Measurements published in US7906655B2, “Hepatitis C virus inhibitors” (Bristol-Myers Squibb Company, priority 2008, dated 2011).

test system: HCV 1b genotype; assay: HCV Replicon assay (HCV-neo replicon cells, wild-type); format: cell-based; details: HCV 1b genotype replicon; class symbols
Method in brief: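 Inhibition was measured in HCV-neo (genotype 1b) replicon cells. Some assay versions used luciferase reporters.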

Compound	EC50 [nM]
COC(=O)N[C@@H](C)C(=O)N1[C@@H]2C[C@@H]2C[C@H]1c1nc2cc(Oc3cccc(-c4ccc5[nH]c([C@@H]6C[C@H]7C[C@H]7N6C(=O)[C@H](C)NC(=O)OC)nc5c4)c3)ccc2[nH]1 [Example V2, methyl ((1S)-2-((1R,3S,5R)-3-(5-(3-((2-((1R,3S,5R)-2-(N-(methoxycarbonyl)-L-alanyl)-2-azabicyclo[3.1.0]hex-3-yl)-1H-benzimidazol-5-yl)oxy)phenyl)-1H-benzimidazol-2-yl)-2-azabicyclo[3.1.0]hex-2-yl)-1-methyl-2-oxoethyl) carbamate]	< 4.57
COC(=O)N[C@@H](C(=O)N1[C@@H]2C[C@@H]2C[C@H]1c1nc2cc(Oc3cccc(-c4ccc5[nH]c([C@@H]6C[C@H]7C[C@H]7N6C(=O)[C@H](NC(=O)OC)C(C)C)nc5c4)c3)ccc2[nH]1)C(C)C [Example V3, methyl ((1R)-1-(((1R,3S,5R)-3-(5-(3-(2-((1R,3S,5R)-2-((2R)-2-((methoxycarbonyl)amino)-3-methylbutanoyl)-2-azabicyclo[3.1.0]hex-3-yl)-1H-benzimidazol-5-yl)phenoxy)-1H-benzimidazol-2-yl)-2-azabicyclo[3.1.0]hex-2-yl)carbonyl)-2-methylpropyl) carbamate]	4.57 to 99
COC(=O)NC(C(=O)N1[C@@H]2C[C@@H]2C[C@H]1c1nc2cc(Oc3cccc(-c4ccc5[nH]c([C@@H]6C[C@H]7C[C@H]7N6C(=O)C(NC(=O)OC)c6ccccc6)nc5c4)c3)ccc2[nH]1)c1ccccc1 (stereo partly drawn) [Example V4, methyl (2-((1R,3S,5R)-3-(5-(3-((2-((1R,3S,5R)-2-(((methoxycarbonyl)amino)(phenyl)acetyl)-2-azabicyclo[3.1.0]hex-3-yl)-1H-benzimidazol-5-yl)oxy)phenyl)-1H-benzimidazol-2-yl)-2-azabicyclo[3.1.0]hex-2-yl)-2-oxo-1-phenylethyl) carbamate]	< 4.57
COC(=O)NC(C(=O)N1[C@@H]2C[C@@H]2C[C@H]1c1nc2cc(Oc3cccc(-c4ccc5[nH]c([C@@H]6C[C@H]7C[C@H]7N6C(=O)C(NC(=O)OC)c6ccccc6)nc5c4)c3)ccc2[nH]1)c1ccccc1 (stereo partly drawn) [Example V5, methyl (2-((1R,3S,5R)-3-(5-(3-((2-((1R,3S,5R)-2-(((methoxycarobnyl)amino)phenyl)acetyl)-2-azabicyclo[3.1.0]hex-3-yl)-1H-benzimidazol-5-yl)oxy)phenyl)-1H-benzimidazol-2-yl)-2-azabicyclo[3.1.0]hex-2-yl)-2-oxo-1-phenylethyl) carbamate]	< 4.57
COC(=O)N[C@@H](C(=O)N1[C@@H]2C[C@@H]2C[C@H]1c1nc2cc(-c3ccc(Oc4cccc5[nH]c([C@@H]6C[C@H]7C[C@H]7N6C(=O)[C@H](NC(=O)OC)C(C)C)nc45)cc3)ccc2[nH]1)C(C)C [Example V7, methyl ((1R)-1-(((1R,3S,5R)-3-(4-(4-(2-((1R,3S,5R)-2-((2R)-2-(methoxycarbonyl)amino)-3-methylbutanoyl)-2-azabicyclo[3.1.0]hex-3-yl)-1H-benzimidazol-5-yl)phenoxy)-1H-benzimidazol-2-yl)-2-azabicyclo[3.1.0]hex-2-yl)carbonyl)-2-methylpropyl) carbamate]	4.57 to 99
COC(=O)N[C@@H](C)C(=O)N1[C@@H]2C[C@@H]2C[C@H]1c1nc2cc(-c3ccc(Oc4cccc5[nH]c([C@@H]6C[C@H]7C[C@H]7N6C(=O)[C@H](C)NC(=O)OC)nc45)cc3)ccc2[nH]1 [Example V8, methyl ((1S)-2-((1R,3S,5R)-3-(5-(4-((2-((1R,3S,5R)-2-(N-(methoxycarbonyl)-L-alanyl)-2-azabicyclo[3.1.0]hex-3-yl)-1H-benzimidazol-4-yl)oxy)phenyl)-1H-benzimidazol-2-yl)-2-azabicyclo[3.1.0]hex-2-yl)-1-methyl-2-oxoethyl) carbamate]	< 4.57
COC(=O)NC(C(=O)N1[C@@H]2C[C@@H]2C[C@H]1c1nc2cc(-c3ccc(Oc4cccc5[nH]c([C@@H]6C[C@H]7C[C@H]7N6C(=O)C(NC(=O)OC)c6ccccc6)nc45)cc3)ccc2[nH]1)c1ccccc1 (stereo partly drawn) [Example V9, methyl (2-((1R,3S,5R)-3-(5-(4-((2-((1R,3S,5R)-2-(((methoxycarbonyl)amino)(phenyl)acetyl)-2-azabicyclo[3.1.0]hex-3-yl)-1H-benzimidazol-4-yl)oxy)phenyl)-1H-benzimidazol-2-yl)-2-azabicyclo[3.1.0]hex-2-yl)-2-oxo-1-phenylethyl) carbamate]	< 4.57
COC(=O)NC(C(=O)N1[C@@H]2C[C@@H]2C[C@H]1c1nc2cc(-c3ccc(Oc4cccc5[nH]c([C@@H]6C[C@H]7C[C@H]7N6C(=O)C(NC(=O)OC)c6ccccc6)nc45)cc3)ccc2[nH]1)c1ccccc1 (stereo partly drawn) [Example V10, methyl (2-((1R,3S,5R)-3-(5-(4-((2-((1R,3S,5R)-2-(((methoxycarbonyl)amino)(phenyl)acetyl)-2-azabicyclo[3.1.0]hex-3-yl)-1H-benzimidazol-4-yl)oxy)phenyl)-1H-benzimidazol-2-yl)-2-azabicyclo[3.1.0]hex-2-yl)-2-oxo-1-phenylethyl) carbamate]	< 4.57

same assay, conditions: Hepatitis C virus, HCV 1b genotype replicon; class symbols

Compound	EC50 [nM]
COC(=O)N[C@H](C(=O)N1[C@@H]2C[C@@H]2C[C@H]1c1nc2cc(C#CC#Cc3ccc4[nH]c([C@@H]5C[C@H]6C[C@H]6N5C(=O)[C@@H](NC(=O)OC)C(C)C)nc4c3)ccc2[nH]1)C(C)C [Example M57.2, Methyl((1S)-1-(((1R,3S,5R)-3-(5-(4-(2-((1R,3S,5R)-2-((2S)-2-((methoxycarbonyl)amino)-3-methylbutanoyl)-2-azabicyclo[3.1.0]hex-3-yl)-1H-benzimidazol-5-yl)-1,3-butadiyn-1-yl)-1H-benzimidazol-2-yl)-2-azabicyclo[3.1.0]hex-2-yl)carbonyl)-2-methylpropyl)carbamate]	< 4.57
COC(=O)N[C@H](C(=O)N1[C@@H]2C[C@@H]2C[C@H]1c1nc2cc(Oc3cccc(-c4ccc5[nH]c([C@@H]6C[C@H]7C[C@H]7N6C(=O)[C@@H](NC(=O)OC)C(C)C)nc5c4)c3)ccc2[nH]1)C(C)C [Example V1, Methyl((1S)-1-(((1R,3S,5R)-3-(5-(3-(2-((1R,3S,5R)-2-((2S)-2-((methoxycarbonyl)amino)-3-methylbutanoyl)-2-azabicyclo[3.1.0]hex-3-yl)-1H-benzimidazol-5-yl)phenoxy)-1H-benzimidazol-2-yl)-2-azabicyclo[3.1.0]hex-2-yl)carbonyl)-2-methylpropyl)carbamate]	< 4.57
COC(=O)N[C@H](C(=O)N1[C@@H]2C[C@@H]2C[C@H]1c1nc2cc(-c3ccc(Oc4cccc5[nH]c([C@@H]6C[C@H]7C[C@H]7N6C(=O)[C@@H](NC(=O)OC)C(C)C)nc45)cc3)ccc2[nH]1)C(C)C [Example V6, Methyl((1S)-1-(((1R,3S,5R)-3-(4-(4-(2-((1R,3S,5R)-2-((2S)-2-((methoxycarbonyl)amino)-3-methylbutanoyl)-2-azabicyclo[3.1.0]hex-3-yl)-1H-benzimidazol-5-yl)phenoxy)-1H-benzimidazol-2-yl)-2-azabicyclo[3.1.0]hex-2-yl)carbonyl)-2-methylpropyl)carbamate]	< 4.57
COC(=O)N[C@H](C(=O)N1CCC[C@H]1c1nc2cc(-c3ccc(Oc4cccc5[nH]c([C@@H]6CCCN6C(=O)[C@@H](NC(=O)OC)C(C)C)nc45)cc3)ccc2[nH]1)C(C)C [Example V11, Methyl((1S)-1-(((2S)-2-(4-(4-(2-((2S)-1-((2S)-2-((methoxycarbonyl)amino)-3-methylbutanoyl)-2-pyrrolidinyl)-1H-benzimidazol-5-yl)phenoxy)-1H-benzimidazol-2-yl)-1-pyrrolidinyl)carbonyl)-2-methylpropyl)carbamate]	< 4.57
